Patent US6703385B1, “Tricyclic compounds having sPLA2-inhibitory activities” (Shionogi & Co., Ltd., priority 1999, dated 2004)

How the values were obtained:
type II sPLA2 = molecular target: T1, type II sPLA2 (Homo sapiens, UniProt P14555); experiment: Inhibition test of human secretory phospholipase A2, chromogenic assay, type II enzyme; type: biochemical; settings: Inhibitory activity of type II sPLA2
T1 sequence (P14555 21-144): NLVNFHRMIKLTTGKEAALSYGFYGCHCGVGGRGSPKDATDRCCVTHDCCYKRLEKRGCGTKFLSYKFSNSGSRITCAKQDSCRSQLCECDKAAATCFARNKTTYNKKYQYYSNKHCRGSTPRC
Description: In order to identify and evaluate an inhibitor of recombinant human secretory phospholipase A2, the following chromogenic assay is utilized. The assay herein has been applied for high volume screening wherein 96 well microtiterplate is used. A general explanation for such assay is described in “Analysis of Human Synovial Fluid Phospholipase A2 on Short Chain Phosphatidylcholine-Mixed Micelles: Development of a Spectrophotometric Assay Suitable for a Microtiterplate Reader” (Analytical Biochemistry, 204, pp 190-197, 1992 by Laure. J. Reynolds. Lori L. Hughes and Edward A. Dennis: the disclosure of which is incorporated herein for reference.
Type II enzyme: 1 mg of sPLA2 is dissolved in 1 ml of an enzyme buffer. Thereafter, the solution is maintained at 4° C. In the assay, 5 μl of the solution is diluted with 1995 μl of the reaction buffer to be used.
1) 0.106 ml of the substrate solution is put in a centrifugal tube, and nitrogen gas is jetted to remove the solvent. 0.54 ml of Triton-X 100 is added thereto, the mixture is stirred, thereafter it is sonified in a bath type sonification to dissolve. To the resulting product are added 17.8 ml of the reaction buffer and 0.46 ml of DTNB, and 0.18 ml each of the admixture is poured to wells of the 96 well microtiterplate.
2) 10 μl of a test compound (or solvent blank) are added in accordance with alignment of plates which has been previously set.
3) Incubation is effected at 40° C. for 15 minutes.
4) 90 ng/well in case of human type I enzyme, 50 ng/well in case of human type II enzyme, 40 μl/well in case of human type V enzyme, 15 μl/well in case of human type X enzyme were reacted.
5) Changes in absorbancy for 30 minutes for humane type I, type II, and type X enzyme and for 45 min for human type V enzyme, are measured by a plate reader, and inhibition activity was calculated (OD: 405 nm).
6) IC50 was determined by plotting log concentration with respect to inhibition values within 10% to 90% inhibiting range.

Row | IC50 (type II sPLA2) [nM] | melting point | SMILES
1 | 54 | – | NC(=O)C(=O)c1c2c(n3cccc(OCC(=O)O)c13)C(c1ccccc1)CCC2 (stereo not drawn) [Compound I-4]
2 | 45 | 228 to 230 °C (dec.) | NC(=O)C(=O)c1c2c(n3cccc(OCC(=O)O)c13)C(c1ccccc1)=CCC2 [Compound I-2]
3 | 262 | – | NC(=O)C(=O)c1c2c(n3cccc(OCC(=O)O)c13)C(c1ccccc1)N(C(=O)C(F)(F)F)CC2 (stereo not drawn) [Compound I-8]
4 | 1590 | 198 to 199 °C | COC(=O)COc1cccn2c3c(c(C(=O)C(N)=O)c12)CCCC3c1ccccc1 (stereo not drawn) [Compound I-3]
5 | 34 | – | NC(=O)C(=O)c1c2c(n3ccnc(OCC(=O)O)c13)C(c1ccccc1)=CCC2 [Compound I-14]
6 | 789 | 225 to 227 °C (dec.) | COC(=O)COc1cccn2c3c(c(C(=O)C(N)=O)c12)CCC=C3c1ccccc1 [Compound I-1]
7 | 178 | – | NC(=O)C(=O)c1c2scc(-c3ccccc3)c2n2cccc(OCC(=O)O)c12 [Compound I-12]
8 | 4570 | – | CC(=O)N1CCc2c(C(=O)C(N)=O)c3c(OCC(=O)O)cccn3c2C1c1ccccc1 (stereo not drawn) [Compound I-6]
9 | 5680 | – | COC(=O)COc1cccn2c1c(C(=O)C(N)=O)c1scc(-c3ccccc3)c12 [Compound I-11]
